Assay results taken from patent US6087358A (priority 1997, dated 2000).
Converted amounts (≈) assume the structure as drawn. Where two headings read alike, the source gives them in different places.

Assays:
[1] = test system: Mycobacterium bovis BCG (recombinant strain); experiment: microbe, parasite or virus in culture; assay type: cell-based; details: Mycobacterium tuberculosis variant bovis BCG, BCG, 144 h; 6 days 37° C.; read-out: MIC, column A, 3(S) compounds
[2] = test system: Mycobacterium bovis (rBCG-lux); experiment: microbe, parasite or virus in culture; assay type: cell-based, Mycobacterium bovis bacille Calmette Guerin; details: Mycobacterium tuberculosis variant bovis, 72 h; read-out: % of control, measured in RLUs
[3] = test system: M. tuberculosis H37 Rv in human THP-1 macrophages; experiment: In vitro activity against M. tuberculosis in human macrophages (luciferase bioluminescence); assay type: cell-based, Mycobacterium tuberculosis, in human THP-1 cells
[4] = test system: Helicobacter felis; experiment: In vivo activity against Helicobacter felis in mice (urease test of stomach biopsy); set-up: species or system in female CD-1 mice; details: 50 mg/kg three times daily oral gavage, CM-2, four days; vehicle and untreated 100
Protocol: Female CD-1 mice weighing 30 grams were infected by oral gavage with 10^8 -10^9 colony forming units of H. felis. This infection process was repeated two, and four days, thereafter. Colonization of the stomach was allowed to occur over a seven day period. Animals were segregated into groups of five, and were treated three times daily by oral gavage with 50 mg/kg of test drugs prepared in the CM-2 formulation vehicle (Example 52). Treatment continued for four days. One group of animals received an equal volume of formulation vehicle alone, to ensure that the vehicle had no effect on the Helicobacter infection. A separate untreated control group was also included.
All animals were then sacrificed, the stomachs were removed, opened, and the contents washed out. A five millimeter diameter biopsy was removed, and transferred to a urease test solution containing a pH-sensitive dye, which was then incubated at 37° C. incubator for 24 hours. A blue or purple coloration in this test solution signifies a positive reaction, indicating the continued presence of viable Helicobacter bacteria; a negative result is indicated by a yellow coloration. Viable Helicobacter bacteria produce a urease enzyme which converts urea, of which there is an abundant supply in the stomach (from saliva and gastric juices), into bicarbonate and ammonia, which are strong bases. This mechanism is considered to provide conditions more amenable to the survival of Helicobacter in the otherwise acidic conditions prevalent in the stomach.

[5] = test system: Mycobacterium tuberculosis (rMTB); experiment: In vivo antimycobacterial activity against M. tuberculosis (rMTB) in lungs of mice; set-up: species or system Mycobacterium tuberculosis Erdman, in female BALB/c mice; details: 25 mg/kg daily oral gavage, CM-2, 10 days, control 117,258 (PA-824, 636, 1297) or 22,751 (others)
[6] = test system: Helicobacter pylori Strain 4187E; experiment: In vivo activity against Helicobacter pylori strain 4187E in mice; set-up: species or system in outbred female white mice; details: oral gavage, four days
Source text: Outbred female white mice (20 grams) were infected by oral gavage with 10^7 -10^8 colony forming units of H. pylori strain 4187E (originally isolated from a patient with a duodenal ulcer). […] Treatment continued for four days. Clarithromycin, administered at the same concentration and for the same duration, was included as a positive control. One group of animals also received an equal volume of formulation vehicle alone, to provide a negative control.
Five days after cessation of treatment, all animals were sacrificed, the stomachs were removed, opened, and the contents washed out. The entire mucosal surface was then spread evenly over the surface of an agar plate containing antibiotics appropriate for the prevention of growth of microorganisms other than Helicobacter spp. After seven days incubation under microaeropilic conditions at 37° C., culture plates were evaluated for bacterial growth.

[7] = test system: Mycobacterium tuberculosis (rMTB); experiment: In vivo antimycobacterial activity against M. tuberculosis (rMTB) in spleens of mice; set-up: species or system Mycobacterium tuberculosis Erdman, in female BALB/c mice; details: 25 mg/kg daily oral gavage, CM-2, 10 days, control 422,866 (PA-824, 636, 1297) or 362,274 (others)
[8] = test system: Helicobacter pylori; experiment: In vitro inhibition of Helicobacter pylori (broth microdilution MIC); details: Helicobacter pylori

O=[N+]([O-])c1cn2c(n1)OC[C@@H](OCc1ccc(OC(F)(F)F)cc1)C2 [PA-824, 3S 4-(Trifluromethoxy)benzyloxy-6-nitro-2H-3,4-dihydro-[2-1b]imidazopyran]
MIC [1]: 0.06 µg/mL (≈ 0.167 µM) | activity at 0.15 µg/mL [2]: 29.4% | activity at 0.31 µg/mL [2]: 12.3% | activity at 0.62 µg/mL [2]: 0.6% | activity at 1.25 µg/mL [2]: 0.3% | activity at 2.5 µg/mL [2]: 0.2% | activity at 5 µg/mL [2]: 0.1% | RLU values ([3]; 0.06 μg/mL, day 1): 25856 RLU | RLU values ([3]; 0.06 μg/mL, day 2): 93959 RLU | RLU values ([3]; 0.06 μg/mL, day 3): 109301 RLU | RLU values ([3]; 0.06 μg/mL, day 4): 118318 RLU | RLU values ([3]; 0.06 μg/mL, day 7): 138792 RLU | RLU values ([3]; 0.13 μg/mL, day 1): 16904 RLU | RLU values ([3]; 0.13 μg/mL, day 2): 40573 RLU | RLU values ([3]; 0.13 μg/mL, day 3): 29162 RLU | RLU values ([3]; 0.13 μg/mL, day 4): 27802 RLU | RLU values ([3]; 0.13 μg/mL, day 7): 28699 RLU | RLU values ([3]; 0.25 μg/mL, day 1): 15814 RLU | RLU values ([3]; 0.25 μg/mL, day 2): 18064 RLU | RLU values ([3]; 0.25 μg/mL, day 3): 13413 RLU | RLU values ([3]; 0.25 μg/mL, day 4): 8684 RLU | RLU values ([3]; 0.25 μg/mL, day 7): 6437 RLU | RLU values ([3]; 0.5 μg/mL, day 1): 10021 RLU | RLU values ([3]; 0.5 μg/mL, day 2): 9610 RLU | RLU values ([3]; 0.5 μg/mL, day 3): 6579 RLU | RLU values ([3]; 0.5 μg/mL, day 4): 5068 RLU | RLU values ([3]; 0.5 μg/mL, day 7): 2957 RLU | RLU values ([3]; 1.0 μg/mL, day 1): 8197 RLU | RLU values ([3]; 1.0 μg/mL, day 2): 5588 RLU | RLU values ([3]; 1.0 μg/mL, day 3): 3950 RLU | RLU values ([3]; 1.0 μg/mL, day 4): 2686 RLU | RLU values ([3]; 1.0 μg/mL, day 7): 1986 RLU | RLU values ([3]; 2.0 μg/mL, day 1): 4571 RLU | RLU values ([3]; 2.0 μg/mL, day 2): 3833 RLU | RLU values ([3]; 2.0 μg/mL, day 3): 2567 RLU | RLU values ([3]; 2.0 μg/mL, day 4): 1507 RLU | RLU values ([3]; 2.0 μg/mL, day 7): 1217 RLU | minimal effective concentration ([3]; Mycobacterium tuberculosis, H37RV, human THP-1 macrophages, read-out: concentrations sufficient to prevent intracellular growth of M. tuberculosis): ≥ 0.25 µg/mL | dose-related response ([3]; concentrations up to 2.0 μg/ml): A clear dose-related response | % Survival [4]: 40% | Average RLUs, M. tuberculosis (rMTB) in lungs [5]: 2,496 RLUs | % Eradication ([6]; once daily 25 mg/kg): 0% | % Eradication ([6]; twice daily 5 mg/kg): 10% | % Eradication ([6]; twice daily 50 mg/kg): 100% | Average RLUs, M. tuberculosis (rMTB) in spleens [7]: 53,540 RLUs | MIC ([8]; 72 h, read-out: MIC against Helicobacter pylori, strain 17 (Table 5A)): > 25 µg/mL | MIC ([8]; 72 h, read-out: MIC against Helicobacter pylori, strain 19 (Table 5A)): 0.4 µg/mL (≈ 1.11 µM) | MIC ([8]; 72 h, read-out: MIC against Helicobacter pylori, strain 20 (Table 5A)): 0.2 µg/mL (≈ 0.557 µM) | MIC ([8]; 72 h, read-out: MIC against Helicobacter pylori, strain 40 (Table 5A)): 0.4 µg/mL (≈ 1.11 µM) | MIC ([8]; 72 h, read-out: MIC against Helicobacter pylori, strain 43 (Table 5A)): 0.8 µg/mL (≈ 2.23 µM) | MIC ([8]; 72 h, read-out: MIC against Helicobacter pylori, strain 76 (Table 5A)): 12.5 µg/mL (≈ 34.8 µM) | MIC ([8]; ATCC43504, 72 h, read-out: MIC against Helicobacter pylori, strain ATCC 43504 (Table 5A)): > 25 µg/mL
